# Assay results taken from ChEMBL document CHEMBL3526079, “Glutaredoxin is involved in the formation of the pharmacologically active metabolite of clopidogrel from its GSH conjugate” (Drug Metab Dispos, 2012).
# Columns and labels:
# Liver microsome [1] = test: Drug level in human liver microsome assessed as compound formation treated with R-115991 at 5 uM by LC-MS/MS analysis in presence of 5 mM GSH; format: ADME; details: microsomes
# [2] = Activity of human recombinant glutaredoxin assessed as intrinsic clearance of enzyme-mediated (E)-2-(1-((S)-1-(2-chlorophenyl)-2-methoxy-2-oxoethyl)-4-mercaptopiperidin-3-ylidene)acetic acid formation per pmol of protein; format: ADME
# Liver microsome [3] = test: Drug metabolism in human liver microsome assessed as (E)-2-(1-((S)-1-(2-chlorophenyl)-2-methoxy-2-oxoethyl)-4-mercaptopiperidin-3-ylidene)acetic acid formation at 1 uM for 2.5 mins by LC-MS/MS analysis in presence of 5 mM GSH and 19 to 300 ug/ml anti-human glutaredoxin antibody; format: ADME; details: microsomes
# [4] = Activity of human recombinant glutaredoxin assessed as enzyme-mediated (E)-2-(1-((S)-1-(2-chlorophenyl)-2-methoxy-2-oxoethyl)-4-mercaptopiperidin-3-ylidene)acetic acid formation; format: ADME
# Liver cytosol [5] = test: Drug metabolism in human liver cytosol assessed as (E)-2-(1-((S)-1-(2-chlorophenyl)-2-methoxy-2-oxoethyl)-4-mercaptopiperidin-3-ylidene)acetic acid formation at 1 uM for 2.5 mins by LC-MS/MS analysis in presence of 5 mM GSH and 19 to 300 ug/ml anti-human glutaredoxin antibody; format: ADME
# [6] = Activity of human recombinant glutaredoxin assessed as enzyme-mediated (E)-2-(1-((S)-1-(2-chlorophenyl)-2-methoxy-2-oxoethyl)-4-mercaptopiperidin-3-ylidene)acetic acid formation at 1 uM for 2.5 mins by LC-MS/MS analysis in presence of 5 mM GSH and 19 to 300 ug/ml anti-human glutaredoxin antibody; format: ADME
# [7] = Activity of human recombinant glutaredoxin assessed as enzyme-mediated (E)-2-(1-((S)-1-(2-chlorophenyl)-2-methoxy-2-oxoethyl)-4-mercaptopiperidin-3-ylidene)acetic acid formation per ug of protein; format: ADME
# [8] = Activity of human recombinant glutaredoxin assessed as intrinsic clearance of enzyme-mediated (E)-2-(1-((S)-1-(2-chlorophenyl)-2-methoxy-2-oxoethyl)-4-mercaptopiperidin-3-ylidene)acetic acid formation per ug of protein; format: ADME
# [9] = Activity of human recombinant glutaredoxin assessed as enzyme-mediated compound formation rate measured per ug of enzyme at 1 uM for 2.5 mins by LC-MS/MS analysis in presence of 5 mM GSH; format: ADME
# Liver microsome [10] = test: Drug level in human liver microsome assessed as compound formation rate measured per mg of protein treated with 1 uM R-361015-SG for 2.5 mins by LC-MS/MS analysis in presence of 5 mM GSH; format: ADME; details: microsomes
# Liver cytosol [11] = test: Drug level in human liver cytosol assessed as compound formation rate measured per mg of protein treated with 1 uM R-361015-SG for 2.5 mins by LC-MS/MS analysis in presence of 5 mM GSH; format: ADME, tissue-based
# Liver microsome [12] = test: Drug metabolism in human liver microsome assessed as (E)-2-(1-((S)-1-(2-chlorophenyl)-2-methoxy-2-oxoethyl)-4-mercaptopiperidin-3-ylidene)acetic acid formation at 5 uM by LC-MS/MS analysis in presence of 5 mM GSH; format: ADME; details: microsomes
# Liver microsome [13] = test: Drug metabolism in human liver microsome assessed as (2S)-2-amino-5-((2R)-1-(carboxymethylamino)-3-(((E)-3-(carboxymethylene)-1-((S)-1-(2-chlorophenyl)-2-methoxy-2-oxoethyl)piperidin-4-yl)disulfanyl)-1-oxopropan-2-ylamino)-5-oxopentanoic acid formation at 5 uM by LC-MS/MS analysis in presence of 5 mM GSH and 1 mg/ml human liver cytosol; format: ADME; details: microsomes
# Liver microsome [14] = test: Drug metabolism in human liver microsome assessed as (2S)-2-amino-5-((2R)-1-(carboxymethylamino)-3-(((E)-3-(carboxymethylene)-1-((S)-1-(2-chlorophenyl)-2-methoxy-2-oxoethyl)piperidin-4-yl)disulfanyl)-1-oxopropan-2-ylamino)-5-oxopentanoic acid formation at 5 uM by LC-MS/MS analysis in presence of 5 mM GSH; format: ADME; details: microsomes
Drug metabolism (Liver microsome [1]),CL [2],Drug metabolism (Liver microsome [3]),Km [4],Drug metabolism (Liver cytosol [5]),Drug metabolism [6],Vmax [7],clearance [8],Drug metabolism [9],Drug metabolism (Liver microsome [10]),Drug metabolism (Liver cytosol [11]),Drug metabolism (Liver microsome [12]),Drug metabolism (Liver microsome [13]),Drug metabolism (Liver microsome [14]),SMILES
metabolite_detected,0.1548 µL/min,metabolite_not_detected,30 µM,metabolite_not_detected,metabolite_not_detected,381.6 pmol/min,12.9 µL/min/µg,,,,,,,COC(=O)[C@H](c1ccccc1Cl)N1CCC(SSC[C@H](NC(=O)CC[C@H](N)C(=O)O)C(=O)NCC(=O)O)/C(=C/C(=O)O)C1 (stereo not given in full)
metabolite_detected,,,,,,,,130 pmol/min,508 pmol/min,2843 pmol/min,,,,COC(=O)[C@H](c1ccccc1Cl)N1CCC(S)/C(=C/C(=O)O)C1 (stereo not given in full)
,,,,,,,,,,,metabolite_detected,metabolite_not_detected,metabolite_detected,COC(=O)[C@H](c1ccccc1Cl)N1CCC2SC(=O)C=C2C1 (stereo not given in full) [CLOPIDOGREL THIOLACTONE]
